# No end group written: not given here.
# Key:
# [1] = system: rat aortic smooth muscle cells (RASMCs); assay: RASMC proliferation (PCNA immunostaining, EZ-CyTox cell viability assay); assay type: cell-based; conditions: synthetic conditions (10% FBS), 3 μM peptide
# Experimental: The rat aortic smooth muscle cells (RASMCs) were isolated from the medial layer of the thoracic aorta derived from male Sprague-Dawley rats (body weight, 180-200 g) by an enzymatic reaction with collagenase (50 U/mL, Worthington) and pancreatic elastase (0.25 mg/mL, Sigma-Aldrich) for 4 hours at 37. The cells were collected and resuspended in DMEM containing 20% (v/v) fetal bovine serum. The resuspension was then plated on collagen I (Sigma-Aldrich)-coated glass coverslips and incubated at 37 in an atmosphere of 5% (v/v) CO2 and 95% (v/v) air. Human coronary smooth muscle cells (HCSMCs), pulmonary arterial endothelial cells (PAECs), and pulmonary arterial smooth muscle cells (PASMCs) were purchased from Lonza and cultured in EBM or SmBM (Lonza) supplemented with 0.5 mg/mL hEGF, […], 1 mg/mL hFGF, […] gentamicin/amphotericin-B, and 5% fetal bovine serum. All the cells were cultured at 37 in 5% (v/v) CO2 and 95% (v/v) air. RASMCs and HCSMCs were, respectively, plated at the densities of 1×10^4 cells/cm^2 and 1×10^5 cells/cm^2 for immunostaining and western blotting experiments. For RASMC and PASMC cell proliferation experiments, these cells were cultured in fetal bovine serum-free media for 3 days, and then proliferation was induced by serum addition.
# Rat aortic smooth muscle cells (RASMCs) were fixed in 4% (w/v) paraformaldehyde at room temperature for 10 min, washed with PBS, and then transmitted with 0.1% (v/v) Triton X-100 in PBS for 40 min. After washing and blocking with 3% (w/v) BSA in PBS, the cells were incubated overnight at room temperature with antibodies against SERCA2a (1:250), SERCA2b (1:250), and PCNA (1:50). On the following day, the cells were washed with PBS and incubated with anti-rabbit and anti-mouse IgG conjugated to Alexa Fluor 488 and 594, respectively, for 1 hour at room temperature. The cells were treated with FluoroGuard antifade reagent (Bio-Rad, Hercules, Calif., USA), and the coverslips were examined under a fluorescent microscope. […]
# cytosolic Ca^2+ level = assay: Intracellular Ca2+ measurement in HCSMCs; assay type: cell-based, human; conditions: HCSMCs pretreated 1 hour with 3 μM ψPLB-SE or 15 μM MDL28170, then 50 μM A23187 2 hours
# Experimental: FIGS. 4a, 4b, 4c and 4d. (4a-4c) HCSMCs were pretreated with 3 μM ψPLB-SE and 15 μM MDL28170 for 1 hour, and then treated with 50 μM A23187 for 2 hours. (4a) Immunostaining was performed with antibodies against SERCA2a and SERCA2b (green). Nuclei were stained with Hoechst (blue). Representative merged images are shown. Scale bar, 50 μm. (4b) Western blot analysis was performed with cell extracts. Data are expressed as the means±SD (n=3-4; *, P<0.05). (4c) Baseline Ca^2+ concentration was measured by lonOptix calcium imaging system. (4d) RASMC were treated with ψPLB-SE or control peptide under the same conditions as described for FIG. 1B. The baseline Ca^2+ concentration was measured by lonOptix calcium imaging system (*, P<0.05).
# The intracellular Ca^2+ level was measured in VSMCs by loading cells with 0.5 μM Fura2-AM (Molecular Probes, Eugene Oreg., USA), a Ca^2+-sensitive indicator, for 15 minutes at 37. The fluorescence was recorded using the lonOptix calcium imaging system. VSMCs were stimulated by the exposure to light emitted by a 75 W halogen lamp through either a 340 nm or 380 nm filter. The fluorescent emissions were detected between 480 nm and 520 nm by a photomultiplier tube after an initial illumination at 340 nm for 0.5 second and then at 380 nm during recording. The 340 nm excitation scan was repeated at the end of the protocol, and qualitative changes in the intracellular Ca^2+ level were inferred from the ratio of the Fura2 fluorescent intensity at both wavelengths.
# [2] = system: interaction of PP1 and Akt; assay: PP1 immunoprecipitation of pulmonary tissue lysate; assay type: binding; conditions: ψPLB-SE added upon the precipitation
# Experimental: FIGS. 16a, 16b and 16c. (16a-16b) PAECs were treated with 3 μM ψPLB-SE for 1 hour, and protein expression was quantitatively analyzed through western blotting using antibodies against Phospho-eNOS (ser1177), total eNOS, phospho-Akt (Ser473, Thr308), total Akt, and GAPDH. (16c) The pulmonary tissue lysate was subjected to immunoprecipitation using PP1 antibody to investigate the interactions of PP1 with eNOS and Akt depending on the presence or absence of the treatment with ψPLB-SE using respective antibodies therefor.
# In order to intensively investigate the interactions of PP1 with eNOS and Akt, the pulmonary tissue lysate was subjected to immunoprecipitation using an antibody against PP1, and the effects of ψPLB-SE on the interactions were investigated by adding ψPLB-SE upon the precipitation. […] The activation of eNOS through the inhibition of the interaction between PP1 and Akt was supplemented through the experiments on the inhibition of the high-order kinase of Akt. The phosphorylation increases of Akt and eNOS due to the inhibition of dephosphorylation were investigated by offsetting the phosphorylation conditions of Akt through the treatment with LY294002, which is an inhibitor of phosphoinositide-3-kinase (PI3K), a known high-order kinase of Akt, at a concentration of 50 μM, followed by ψPLB-SE treatment. […]
# phospholamban = assay: PLB phosphorylation in PASMCs (western blotting); assay type: cell-based; conditions: synthetic phenotype, 3 μM
# Experimental: PASMCs were incubated in DMEM supplemented with 0.1% (v/v) FBS for 3 days to induce a contractile phenotype, followed by incubation in DMEM supplemented with 10% (v/v) FBS for 3 days to induce a synthetic phenotype in the presence of 3 μM ψPLB-SE. (18a) Protein expression was quantitatively analyzed through western blotting using antibodies against phospho-PLB (ser16), total PLB, and GAPDH. Data are expressed as the means±SD (n=3˜4; *, P<0.05 vs contractile; #, P<0.05 vs Synthetic-con).
# Human coronary smooth muscle cells (HCSMCs), pulmonary arterial endothelial cells (PAECs), and pulmonary arterial smooth muscle cells (PASMCs) were purchased from Lonza and cultured in EBM or SmBM (Lonza) supplemented with 0.5 mg/mL hEGF, 5 mg/mL insulin, 1 mg/mL hFGF, 50 mg/mL gentamicin/amphotericin-B, and 5% fetal bovine serum. All the cells were cultured at 37 in 5% (v/v) CO2 and 95% (v/v) air. RASMCs and HCSMCs were, respectively, plated at the densities of 1×10^4 cells/cm^2 and 1×10^5 cells/cm^2 for immunostaining and western blotting experiments.
# Vascular smooth muscle cells (VSMCs) were homogenized in a minimal volume of 50 mM Tris-HCl, pH 7.4, supplemented with a broad-spectrum protease inhibitor cocktail (Calbiochem). […] The blots were scanned and quantified using LAS software.
# SERCA2a = conditions: in vitro and ex vivo; Oh J G et al. (2013); cited from earlier work
sequence,measurement,setting,value
"RAETIEMPQ (not fully specified) [ψPLB-SE, 9-mer PP1 decoy peptide mimicking phosphorylated PLB; conjugated via GGG linker to cell penetrating peptide dNP2 or TAT]",PCNA expression (active cell division),[1]; RASMCs,completely blocked
same,increased proliferation of RASMCs (cell proliferation assay),[1]; 24 hours,inhibited
same,elevation of the cytosolic Ca^2+ level by A23187,cytosolic Ca^2+ level,normalized
same,interaction of Akt with PP1 (immunoprecipitation),[2],attenuated
same,phosphorylation of the serine 16 residue of phospholamban,phospholamban,restored
same,SERCA2a activity in the heart after ischemia/reperfusion,SERCA2a,restored
